Experimental data from US10494378B2, “Fused ring pyrimidine compound, intermediate, and preparation method, composition and use thereof” (GUANGZHOU MAXINOVEL PHARMACEUTICALS CO., LTD., priority 2015, dated 2019).

Legend:
Format in all cases: biochemical
JAK1 kinase = biological target: T1, JAK1 kinase (Homo sapiens, UniProt P23458); assay: IC50 evaluation assay on JAK1 kinase inhibition (Caliper); conditions: adenosine triphosphate at Km; 1 hour at 28° C.; average of two tests; read-out: IC50 (nM) inhibiting JAK 1 kinase
T1 construct: purchased Carna 08-144
Experimental: (§1) 1. The compound was dissolved in 100% DMSO, diluted into solutions with appropriate concentration gradients with water according to experimental requirement, and added to a 384-well plate.
(§2) 2. JAK2 kinase (Carna, Cat. No. 08-045, Lot. No. 07CBS-1927) and JAK3 kinase (Carna, Cat. No. 08-046, Lot. No. 08CBS-0371) were diluted to the optimum concentration with the following buffer solution: 50 mM HEPES, pH 7.5, 0.0015% Brij-35, 2 mM DTT. JAK1 kinase (Carna, Cat. No. 08-144, Lot. No. 11CBS-0144D) was diluted to the optimum concentration with the following buffer solution: 25 mM HEPES pH 7.5, 0.01% Brij-35, 2 mM DTT, 0.01M Triton. Transfer to the 384-well plate and incubated with the compound for a period of time.
(§3) 3. […] The substrate of JAK1 was diluted to the optimum concentration with the following buffer: 25 mM HEPES, pH 7.5, 0.01% Brij-35, 10 mM MgCl2, 0.01M Triton, adenosine triphosphate at Km. Add to the 384-well plate to initiate there action and react for 1 hour at 28° C.
(§4) 4. 1 Eq. of sulfuric acid solution was added to terminate the reaction, the conversion rate was read with Caliper Reader. The inhibition rate was calculated as the average of two tests.

JAK2 kinase = biological target: T2, JAK2 kinase (Homo sapiens, UniProt O60674); assay: IC50 evaluation assay on JAK2 kinase inhibition (Caliper); conditions: adenosine triphosphate at Km; 1 hour at 28° C.; average of two tests; read-out: IC50 (nM) inhibiting JAK 2 kinase
T2 construct: purchased Carna 08-045
Experimental: as §1, §2, §3, §4

JAK3 kinase = biological target: T3, JAK3 kinase (Homo sapiens, UniProt P52333); assay: IC50 evaluation assay on JAK3 kinase inhibition (Caliper); conditions: adenosine triphosphate at Km; 1 hour at 28° C.; average of two tests; read-out: IC50 (nM) inhibiting JAK 3 kinase
T3 construct: purchased Carna 08-046
T3 sequence (P52333 1-1124): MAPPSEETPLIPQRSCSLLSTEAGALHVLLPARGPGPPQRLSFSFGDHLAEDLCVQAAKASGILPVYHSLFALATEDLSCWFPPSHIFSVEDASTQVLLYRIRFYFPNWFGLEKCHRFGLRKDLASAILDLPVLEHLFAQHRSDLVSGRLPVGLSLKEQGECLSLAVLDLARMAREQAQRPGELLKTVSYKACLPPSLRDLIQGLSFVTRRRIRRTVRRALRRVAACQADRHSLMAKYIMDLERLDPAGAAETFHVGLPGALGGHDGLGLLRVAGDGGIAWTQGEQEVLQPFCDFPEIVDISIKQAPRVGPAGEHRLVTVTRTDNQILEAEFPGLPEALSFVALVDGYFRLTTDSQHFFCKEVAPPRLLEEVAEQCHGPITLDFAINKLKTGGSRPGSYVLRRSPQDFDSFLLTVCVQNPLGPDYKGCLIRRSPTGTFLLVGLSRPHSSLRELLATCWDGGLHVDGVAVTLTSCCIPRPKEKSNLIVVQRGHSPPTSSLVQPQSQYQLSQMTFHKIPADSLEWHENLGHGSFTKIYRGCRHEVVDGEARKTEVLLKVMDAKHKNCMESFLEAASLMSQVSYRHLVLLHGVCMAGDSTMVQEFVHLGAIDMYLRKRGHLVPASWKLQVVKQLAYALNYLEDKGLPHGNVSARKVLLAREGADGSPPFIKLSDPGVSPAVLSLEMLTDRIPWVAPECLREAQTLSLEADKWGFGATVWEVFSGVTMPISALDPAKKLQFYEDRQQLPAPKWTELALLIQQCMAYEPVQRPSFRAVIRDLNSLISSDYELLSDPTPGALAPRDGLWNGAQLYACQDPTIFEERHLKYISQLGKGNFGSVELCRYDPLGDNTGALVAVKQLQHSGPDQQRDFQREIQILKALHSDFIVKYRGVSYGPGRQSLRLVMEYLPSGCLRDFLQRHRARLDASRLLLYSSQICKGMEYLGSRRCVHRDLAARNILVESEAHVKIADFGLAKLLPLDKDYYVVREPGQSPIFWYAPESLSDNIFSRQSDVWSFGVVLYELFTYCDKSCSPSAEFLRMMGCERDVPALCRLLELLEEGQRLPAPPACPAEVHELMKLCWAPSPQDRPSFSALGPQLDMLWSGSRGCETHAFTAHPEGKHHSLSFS
Experimental: as §1, §2, §3, §4

T2 sequence (O60674 whole entry): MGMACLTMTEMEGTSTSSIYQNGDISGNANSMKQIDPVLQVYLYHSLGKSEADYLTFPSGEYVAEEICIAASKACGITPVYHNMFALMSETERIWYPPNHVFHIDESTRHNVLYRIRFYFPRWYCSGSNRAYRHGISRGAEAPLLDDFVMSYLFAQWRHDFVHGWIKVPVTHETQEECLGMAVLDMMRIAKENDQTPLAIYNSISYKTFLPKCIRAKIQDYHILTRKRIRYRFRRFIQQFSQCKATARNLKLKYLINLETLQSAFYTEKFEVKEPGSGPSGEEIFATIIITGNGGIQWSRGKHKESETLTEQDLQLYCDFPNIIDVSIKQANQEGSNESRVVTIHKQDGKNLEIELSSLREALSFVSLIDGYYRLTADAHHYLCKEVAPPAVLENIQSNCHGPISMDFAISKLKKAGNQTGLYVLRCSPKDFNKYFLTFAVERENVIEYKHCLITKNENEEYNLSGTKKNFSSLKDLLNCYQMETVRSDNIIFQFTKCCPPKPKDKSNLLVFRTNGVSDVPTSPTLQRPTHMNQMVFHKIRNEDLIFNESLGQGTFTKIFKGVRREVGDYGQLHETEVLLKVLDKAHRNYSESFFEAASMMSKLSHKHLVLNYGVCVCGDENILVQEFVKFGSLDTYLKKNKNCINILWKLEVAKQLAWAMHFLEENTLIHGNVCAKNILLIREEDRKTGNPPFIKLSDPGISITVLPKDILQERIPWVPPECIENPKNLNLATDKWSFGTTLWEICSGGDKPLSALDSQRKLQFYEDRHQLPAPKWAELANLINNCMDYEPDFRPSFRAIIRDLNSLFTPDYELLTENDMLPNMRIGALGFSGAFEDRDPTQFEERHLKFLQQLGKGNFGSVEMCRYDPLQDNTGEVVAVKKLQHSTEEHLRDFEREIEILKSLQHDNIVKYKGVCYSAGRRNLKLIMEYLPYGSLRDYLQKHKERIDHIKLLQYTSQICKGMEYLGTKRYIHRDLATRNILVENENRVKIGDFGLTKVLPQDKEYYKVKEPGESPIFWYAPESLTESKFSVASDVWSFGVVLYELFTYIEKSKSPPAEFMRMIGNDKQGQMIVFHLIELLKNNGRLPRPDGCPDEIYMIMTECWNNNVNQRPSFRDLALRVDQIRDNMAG
T1 sequence (P23458 whole entry): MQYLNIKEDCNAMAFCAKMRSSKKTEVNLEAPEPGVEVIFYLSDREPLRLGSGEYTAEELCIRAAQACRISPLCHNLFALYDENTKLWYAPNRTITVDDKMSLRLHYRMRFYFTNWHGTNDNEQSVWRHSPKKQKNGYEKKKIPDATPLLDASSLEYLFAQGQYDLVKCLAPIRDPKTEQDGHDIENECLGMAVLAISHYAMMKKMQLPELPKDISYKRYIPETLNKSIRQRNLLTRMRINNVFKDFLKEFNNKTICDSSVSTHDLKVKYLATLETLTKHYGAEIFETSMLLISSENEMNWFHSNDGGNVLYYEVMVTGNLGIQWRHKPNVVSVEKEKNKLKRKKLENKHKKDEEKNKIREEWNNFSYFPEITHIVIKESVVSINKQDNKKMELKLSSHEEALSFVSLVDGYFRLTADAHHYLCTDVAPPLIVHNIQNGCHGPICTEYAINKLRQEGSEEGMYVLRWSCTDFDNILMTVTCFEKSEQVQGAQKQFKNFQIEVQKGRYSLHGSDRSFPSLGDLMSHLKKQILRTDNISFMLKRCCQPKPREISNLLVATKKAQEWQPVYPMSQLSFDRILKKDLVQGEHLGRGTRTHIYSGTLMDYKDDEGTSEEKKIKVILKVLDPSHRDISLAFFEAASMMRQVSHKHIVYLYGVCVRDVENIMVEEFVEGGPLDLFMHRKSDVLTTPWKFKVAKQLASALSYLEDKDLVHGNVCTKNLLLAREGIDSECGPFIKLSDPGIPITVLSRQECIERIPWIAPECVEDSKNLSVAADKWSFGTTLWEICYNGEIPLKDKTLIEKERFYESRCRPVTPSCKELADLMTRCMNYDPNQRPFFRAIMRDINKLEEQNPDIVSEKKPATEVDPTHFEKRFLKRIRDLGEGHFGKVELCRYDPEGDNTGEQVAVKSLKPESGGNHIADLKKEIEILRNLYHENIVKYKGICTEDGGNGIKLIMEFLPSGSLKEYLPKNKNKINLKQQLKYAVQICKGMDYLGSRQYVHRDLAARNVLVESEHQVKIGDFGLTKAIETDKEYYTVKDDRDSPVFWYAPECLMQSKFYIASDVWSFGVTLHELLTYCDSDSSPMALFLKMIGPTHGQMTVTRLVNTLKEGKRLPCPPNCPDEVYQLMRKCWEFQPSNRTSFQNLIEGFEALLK

SMILES	IC50 (JAK1 kinase) [nM]	IC50 (JAK2 kinase) [nM]	IC50 (JAK3 kinase) [nM]
Cc1sc2cnc(Nc3cnn(C4CCOCC4)c3)nc2c1-c1cccc2c1OCC2 [Compound 39, N-[7-(2,3-dihydro-1-benzofuran-7-yl)-6-methylthieno[3,2-d]pyrimidin-2-yl]-1-(tetrahydropyran-4-yl)-1H-pyrazol-4-amine]	18	1.6	0.71
COc1ccccc1-c1cccc2cnc(Nc3cnn(C4CCNCC4)c3)nc12 [Compound 45, 8-(2-Methoxyphenyl)-N-[1-(4-piperidinyl)-1H-pyrazol-4-yl]quinazolin-2-amine]	2.4	5.8	1
COc1ccncc1-c1c(C)sc2cnc(Nc3cnn(C)c3)nc12 [Compound 42]	47	13	29
COc1ccccc1-c1cncc2cnc(Nc3cnn(C4CCNCC4)c3)nc12 [Compound 47, N-[8-(2-methoxyphenyl)pyridino[4,3-d]pyrimidin-2-yl]-1-(4-piperidin)-1H-pyrazol-4-amine]	58	9.6	3
COc1ccccc1-c1c(C)sc2cnc(Nc3cnn(C4CCN(C)CC4)c3)nc12 [Compound 25, N-[7-(2-methoxyphenyl)-6-methylthieno[3,2-d]pyrimidinyl-2-yl]-1-(1-methylpiperidin-4-yl)-1H-pyrazol-4-amine]	3.6	0.6	1.3
COc1ncccc1-c1c(C)sc2cnc(Nc3cnn(C)c3)nc12 [Compound 43]	7.2	1.7	1
COc1cc(O[C@H]2CCOC2)ccc1-c1c(C)sc2cnc(Nc3cnn(C)c3)nc12 [Compound 15, N-(7-{2-methoxy-4-[(3S)-3-tetrahydrofuranoxy]phenyl}-6-methylthieno[3,2-d]pyrimidinyl-2-yl]-1-methyl-1H-pyrazol-4-amine]	13	1.8	2.1
c1cc2c(c(-c3cccc4cnc(Nc5cnn(C6CCNCC6)c5)nc34)c1)OCC2 [Compound 44, 8-(2,3-Dihydro-1-benzofuran-7-yl)-N-[1-(4-piperidin)-1H-pyrazol-4-yl]quinazolin-2-amine]	54	7.7	16
COc1cc(OCC(=O)N2CCC2)ccc1-c1c(C)sc2cnc(Nc3cnn(C)c3)nc12 [Compound 23]	1.1	0.37	0.64
COc1ccc(-c2c(C)sc3cnc(Nc4cnn(C)c4)nc23)c(OC)c1 [Compound 7, N-[7-(2,4-dimethoxyphenyl)-6-methylthieno[3,2-d]pyrimidinyl-2-yl]-1-methyl-1H-pyrazol-4-amine]	13	1.2	1.8
COc1ccccc1-c1c(C)sc2cnc(Nc3cnn(CCCN4CCCC4)c3)nc12 [Compound 26, N-[7-(2-methoxyphenyl)-6-methylthieno[3,2-d]pyrimidinyl-2-yl]-1-[3-(1-pyrrolidinyl)propyl]-1H-pyrazol-4-amine]	12	1.6	1.6
COc1cc(OCCCN2CCOCC2)ccc1-c1c(C)sc2cnc(Nc3cnn(C)c3)nc12 [Compound 17, N-(7-{2-methoxy-4-[3-(4-morpholinyl)propoxy]phenyl}-6-methylthieno[3,2-d]pyrimidinyl-2-yl)-1-methyl-1H-pyrazol-4-amine]	16	2.3	1.3
